Test results taken from ChEMBL document CHEMBL3046314, “Synthesis, cytotoxicity, and molecular properties prediction of novel 1,3-diarylpyrazole derivatives” (Med Chem Res, 2013).

Legend:
Type in all cases: functional, cell-based
Raji = test: Cytotoxicity against Homo sapiens (human) Raji cells after 48 hr by MTT assay
HL-60 = test: Cytotoxicity against Homo sapiens (human) HL60 cells after 48 hr by MTT assay
MCF7 = test: Cytotoxicity against Homo sapiens (human) MCF7 cells after 48 hr by MTT assay
HeLa = test: Cytotoxicity against Homo sapiens (human) HeLa cells after 48 hr by MTT assay
MDA-MB-231 = test: Cytotoxicity against Homo sapiens (human) MDA-MB-231 cells after 48 hr by MTT assay; settings: MDA-MB-231, 48 h
[1] = Homo sapiens, Raji, 48 h, read-out: IC50
[2] = Homo sapiens, HL-60, 48 h, read-out: IC50
[3] = Homo sapiens, MCF7, 48 h, read-out: IC50

| Structure (SMILES) | IC50 (Raji; raji) | IC50 (HL-60; hl-60) | IC50 (MCF7; mcf7) | IC50 (HeLa) [µM] | IC50 (MDA-MB-231) [µM] | IC50 (Raji; [1]) [µM] | IC50 (HL-60; [2]) [µM] | IC50 (MCF7; [3]) [µM] |
| --- | --- | --- | --- | --- | --- | --- | --- | --- |
| O=C(Oc1ccc2ccccc2c1)c1cn(-c2ccccc2)nc1-c1cccnc1 | ND(Insoluble) | ND(Insoluble) | ND(Insoluble) | > 100 | > 100 | – | – | – |
| O=C(c1cn(-c2ccccc2)nc1-c1cccnc1)N1CCOCC1 | – | – | – | > 100 | > 100 | > 100 | > 100 | > 100 |
| CC(C)(C)c1ccc(OC(=O)c2cn(-c3ccccc3)nc2-c2cccnc2)cc1 | – | – | – | > 100 | > 100 | 42.3 | > 100 | > 100 |
| O=C(O)c1cn(-c2ccccc2)nc1-c1cccnc1 | – | – | – | > 100 | > 100 | > 100 | > 100 | > 100 |
| O=C(Oc1ccc(-c2ccccc2)cc1)c1cn(-c2ccccc2)nc1-c1ccncc1 | ND(Insoluble) | ND(Insoluble) | ND(Insoluble) | > 100 | > 100 | – | – | – |
| CC(C)c1cccc(OC(=O)c2cn(-c3ccccc3)nc2-c2ccncc2)c1 | ND(Insoluble) | ND(Insoluble) | ND(Insoluble) | > 100 | > 100 | – | – | – |
| O=C(c1cn(-c2ccccc2)nc1-c1ccncc1)N1CCN(c2ccc(C(F)(F)F)cc2)CC1 | – | – | – | > 100 | > 100 | 9.63 | > 100 | > 100 |
| Cc1ccc(C(C)C)c(OC(=O)c2cn(-c3ccccc3)nc2-c2cccnc2)c1 | – | – | – | > 100 | > 100 | 20.6 | 22.7 | 84.2 |
| COc1ccc(OC(=O)c2cn(-c3ccccc3)nc2-c2cccnc2)cc1 | – | – | – | > 100 | > 100 | > 100 | > 100 | > 100 |
| O=C(c1cn(-c2ccccc2)nc1-c1ccncc1)N1CCOCC1 | – | – | – | > 100 | > 100 | > 100 | > 100 | > 100 |
| O=C(c1cn(-c2ccccc2)nc1-c1ccncc1)N1CCN(c2ccccc2)CC1 | – | – | – | > 100 | > 100 | > 100 | > 100 | > 100 |
| O=C(c1cn(-c2ccccc2)nc1-c1cccnc1)N1CCN(c2ccncc2)CC1 | – | – | – | > 100 | > 100 | > 100 | > 100 | > 100 |
| O=C(NCc1ccccc1)c1cn(-c2ccccc2)nc1-c1cccnc1 | ND(Insoluble) | ND(Insoluble) | ND(Insoluble) | > 100 | > 100 | – | – | – |
| O=C(c1cn(-c2ccccc2)nc1-c1cccnc1)N1CCC(Cc2ccccc2)CC1 | – | – | – | 25.3 | > 100 | 8.12 | 16.1 | 32.2 |
| O=C(c1cn(-c2ccccc2)nc1-c1ccncc1)N1CCN(c2ccncc2)CC1 | – | – | – | > 100 | > 100 | > 100 | > 100 | > 100 |
| O=C(Oc1ccc(-c2ccccc2)cc1)c1cn(-c2ccccc2)nc1-c1cccnc1 | ND(Insoluble) | ND(Insoluble) | ND(Insoluble) | > 100 | > 100 | – | – | – |
| CN1CCN(C(=O)c2cn(-c3ccccc3)nc2-c2ccncc2)CC1 | – | – | – | > 100 | > 100 | > 100 | > 100 | > 100 |
| O=C(NCc1ccccc1)c1cn(-c2ccccc2)nc1-c1ccncc1 | – | – | – | > 100 | > 100 | > 100 | > 100 | > 100 |
| CC(C)(C)c1ccc(OC(=O)c2cn(-c3ccccc3)nc2-c2ccncc2)cc1 | – | – | – | 35.4 | 34.5 | 33.3 | 18.7 | 32.2 |
| O=C(c1cn(-c2ccccc2)nc1-c1cccnc1)N1CCN(c2ccccc2)CC1 | – | – | – | > 100 | > 100 | 32.8 | 24.5 | > 100 |
| Cc1ccc(C(C)C)c(OC(=O)c2cn(-c3ccccc3)nc2-c2ccncc2)c1 | – | – | – | > 100 | > 100 | 10.6 | 17.8 | > 100 |
| O=C(O)c1cn(-c2ccccc2)nc1-c1ccncc1 | – | – | – | > 100 | > 100 | > 100 | > 100 | > 100 |
| CC(C)c1cccc(OC(=O)c2cn(-c3ccccc3)nc2-c2cccnc2)c1 | – | – | – | > 100 | > 100 | 11.6 | 23.7 | 75.5 |
| O=C(c1cn(-c2ccccc2)nc1-c1cccnc1)N1CCN(c2ccc(C(F)(F)F)cc2)CC1 | – | – | – | 28.6 | > 100 | 15.1 | 16.9 | 75.3 |
| CCc1ccc(OC(=O)c2cn(-c3ccccc3)nc2-c2ccncc2)cc1 | ND(Insoluble) | ND(Insoluble) | ND(Insoluble) | > 100 | > 100 | – | – | – |
| CN1CCN(C(=O)c2cn(-c3ccccc3)nc2-c2cccnc2)CC1 | – | – | – | > 100 | > 100 | 75.6 | > 100 | > 100 |
| O=C(c1cn(-c2ccccc2)nc1-c1ccncc1)N1CCC(Cc2ccccc2)CC1 | – | – | – | 32.8 | > 100 | 21.3 | 16.4 | 56.4 |
| O=C(Oc1ccc2ccccc2c1)c1cn(-c2ccccc2)nc1-c1ccncc1 | – | – | – | > 100 | > 100 | 12.1 | > 100 | 44.5 |
| COc1ccc(OC(=O)c2cn(-c3ccccc3)nc2-c2ccncc2)cc1 | – | – | – | > 100 | > 100 | > 100 | > 100 | > 100 |
